Patent US20100137305A1, “AMINOPYRIMIDINES USEFUL AS KINASE INHIBITORS” (VERTEX PHARMACEUTICALS INCORPORATED, priority 2008, published 2010)

Assays:
[1] = target: T1, Aurora-2 (Aurora A) (Homo sapiens, UniProt O14965); assay: Aurora-2 (Aurora A) Inhibition Assay, coupled enzyme assay; assay type: biochemical; settings: 400 μM ATP, 30° C.; read-out: Aurora A kinase activity Ki
T1 sequence (O14965 1-403): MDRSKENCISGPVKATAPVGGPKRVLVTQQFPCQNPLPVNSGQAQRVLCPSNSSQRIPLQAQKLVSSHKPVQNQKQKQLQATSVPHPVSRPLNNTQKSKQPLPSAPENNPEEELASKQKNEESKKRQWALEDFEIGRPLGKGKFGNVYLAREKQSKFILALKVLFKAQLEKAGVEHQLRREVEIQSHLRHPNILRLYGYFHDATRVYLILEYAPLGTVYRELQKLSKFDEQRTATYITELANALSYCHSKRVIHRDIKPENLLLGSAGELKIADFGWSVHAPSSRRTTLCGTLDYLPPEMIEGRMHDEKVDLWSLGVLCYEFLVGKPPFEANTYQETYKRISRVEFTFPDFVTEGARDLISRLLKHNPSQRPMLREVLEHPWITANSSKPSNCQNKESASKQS
Outline: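 Coupled pyruvate kinase/LDH assay (NADH read-out) with 40 nM Aurora-2, 400 μM ATP and 570 μM Kemptide in 100 mM Hepes pH 7.5, 10 mM MgCl2, at 30 °C. Compound preincubated 10 min (serial dilutions typically from 7.5 μM final); initial rates over 10 min, IC50 and Ki by non-linear regression.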

[2] = target: Aurora-1 (Aurora B) (Homo sapiens, UniProt Q96GD4); assay: Aurora-1 (Aurora B) Inhibition Assay (radiometric); assay type: biochemical; settings: 800 μM ATP; read-out: Aurora B kinase activity Ki
Aurora-1 (Aurora B), sequence (Q96GD4 whole entry): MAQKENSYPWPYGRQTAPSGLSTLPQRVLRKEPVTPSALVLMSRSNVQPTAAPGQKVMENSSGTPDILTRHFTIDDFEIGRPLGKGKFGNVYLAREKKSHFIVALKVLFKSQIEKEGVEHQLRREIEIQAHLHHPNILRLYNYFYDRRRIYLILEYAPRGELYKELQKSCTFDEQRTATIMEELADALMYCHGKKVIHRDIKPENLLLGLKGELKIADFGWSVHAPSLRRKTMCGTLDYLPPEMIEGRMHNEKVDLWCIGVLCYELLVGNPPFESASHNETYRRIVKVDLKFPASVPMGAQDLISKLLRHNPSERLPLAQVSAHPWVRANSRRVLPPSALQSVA
Outline: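 Enzyme at 22 nM in solution with 1.5 mM Kemptide (LRRASLG) in 25 mM HEPES pH 7.5, 10 mM MgCl2, 0.1% BSA, 10% glycerol, 1.7 mM DTT. Compound pre-equilibrated 10 min at 25° C, then [γ-33P]-ATP added at 800 μM final for 3 h. 33P peptide incorporation by phosphocellulose capture and scintillation counting. Ki from initial rates by non-linear regression.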

[3] = tested on: Colo205 cells; assay: Analysis of Cell Proliferation, 3H thymidine incorporation; assay type: cell-based; settings: Homo sapiens, COLO 205, 72 h, 72 hours, read-out: IC50 cell proliferation after 72 hours
Outline: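 Serially diluted compound added in duplicate to Colo205 cells, 0.1% DMSO diluent control, incubated 72 or 96 hrs at 37C, 5% CO2. 0.5 μCi 3H thymidine added 3 h before end; incorporated radioactivity counted by beta-counter and dose-response curves fitted.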

[4] = target: N-terminally truncated (Δ 27) Abl kinase (Homo sapiens, UniProt P00519); assay: Abl Kinase Activity Inhibition Assay, coupled enzyme system; assay type: biochemical; settings: 110 μM ATP, 30° C.
Experimental: Compounds were screened for their ability to inhibit N-terminally truncated (Δ 27) Abl kinase activity using a standard coupled enzyme system (Fox et al., Protein Sci., 7, pp. 2249 (1998)). Reactions were carried out in a solution containing 100 mM HEPES (pH 7.5), 10 mM MgCl2, 25 mM NaCl, 300 μM NADH, 1 mM DTT and 3% DMSO. Final substrate concentrations in the assay were 110 μM ATP (Sigma Chemicals, St Louis, Mo.) and 70 μM peptide (EAIYAAPFAKKK, American Peptide, Sunnyvale, Calif.). Reactions were carried out at 30° C. and 21 nM Abl kinase. Final concentrations of the components of the coupled enzyme system were 2.5 mM phosphoenolpyruvate, 200 μM NADH, 60 μg/ml pyruvate kinase and 20 μg/ml lactate dehydrogenase.
An assay stock buffer solution was prepared containing all of the reagents listed above with the exception of ATP and the test compound of interest. The assay stock buffer solution (60 μl) was incubated in a 96 well plate with 2 μl of the test compound of interest at final concentrations typically spanning 0.002 μM to 30 μM at 30° C. for 10 min. Typically, a 12 point titration was prepared by serial dilutions (from 1 mM compound stocks) with DMSO of the test compounds in daughter plates. The reaction was initiated by the addition of 5 μl of ATP (final concentration 110 μM). Rates of reaction were obtained using a Molecular Devices Spectramax plate reader (Sunnyvale, Calif.) over 10 min at 30° C. The Ki values were determined from the residual rate data as a function of inhibitor concentration using nonlinear regression (Prism 3.0, Graphpad Software, San Diego, Calif.).

[5] = target: T2, T315I mutant of human Abl (Homo sapiens, UniProt P00519, T315I); assay: Mutant Abl Kinase (T315I) Activity Inhibition Assay (Upstate, radiometric); assay type: biochemical
T2 construct: purchased Upstate Cell Signaling Solutions (Dundee, UK)

Ki [1] | Ki [2] | IC50 [3] | Ki [4] | Ki [5] | SMILES
≤ 10 nM | ≤ 10 nM | ≤ 25 nM | 25 to 100 nM | < 200 nM | Cc1cc(Nc2cc(N3CCC(F)C3)nc(Sc3ccc(NC(=O)CC(F)(F)F)cc3)n2)[nH]n1 (stereo not drawn) [Compound I-71]
≤ 10 nM | ≤ 10 nM | 25 to 125 nM | 25 to 100 nM | < 200 nM | Cc1cc(Nc2cc(N3CCC(O)CC3)nc(Sc3ccc(NC(=O)CC(F)(F)F)cc3)n2)[nH]n1 [Compound I-80]
≤ 10 nM | 10 to 50 nM | 25 to 125 nM | 25 to 100 nM | < 200 nM | Cc1cc(Nc2cc(N3CCC(F)C3)nc(Sc3ccc(NC(=O)CCC(F)(F)F)cc3)n2)[nH]n1 (stereo not drawn) [Compound I-81]
